The structures appear in SMILES notation. Bounds are passed on as bounds.

Consider one molecule from patent US20100152303A1, “AGENTS AND METHOD FOR […] […]” (priority 2000, published 2010).

Series [1] relates to ERP57. The series is described as follows: Effect of methoxychlor on ERP57 concentration in rat livers (immunoelectrophoresis of liver microsomes). To be noted: male CD rats, gavage in corn oil, 14 days, dosages 10, 50, and 100 mg/kg/day. It counts as in vivo. An excerpt:
The purpose of this experiment was to determine the effect of administering varying levels of methoxychlor for 14 days on the levels of the microsomal protein ERP57 in mammalian tissues.
Methoxychlor, potassium chloride, and Tris were purchased from Sigma Chemicals (St. Louis, Mo.). The BCA (Bicinchoninic Acid) Assay kits were purchased from Pierce Chemical Company (Rockford, Ill.). Agarose was purchased from Boehringer Mannheim (Indianapolis, Ind.). Polyclonal antibodies to the ERP57 were developed in laying hens as previously described (Srivastava et al. 1991, J. Biol. Chem. 266: 20337-20344; Chen et al. 1996, Biochemistry 25: 8299-8306).
The animals used in these studies were 150-200 g fed, male, CD rats from Harlan Laboratories. […] The microsomal suspensions were aliquoted and stored at −80° C. until analyzed.
The concentrations of total microsomal protein were then determined via the BCA assay. […]
The concentration of ERP57 in the samples was determined with immunoelectrophoresis. […]
The indicator dye was a combination of nitroblue tetrazolium and 5-bromo-4-chloro-3-indoyl phosphate from Bio Rad (Richmond, Calif.). […] The densities of the stained bands were determined on a flat bed scanner from UMAX (Taiwan, China). The scans were analyzed using NIH Image (version 1.54) on a PowerPC (Apple Computer). The blank for each band was determined from the adjacent, unreacted area in the lane.
In general terms: Microsomes from liver hold many membrane-bound enzymes, among them those of drug oxidation.

For series [2] the following is noted: cited from earlier work.

Turning to `COc1ccc(C(c2ccc(OC)cc2)C(Cl)(Cl)Cl)cc1` [methoxychlor, 1,1,1-trichloro-2,2-bis-(4-methoxyphenyl)ethane], in series [1], the “relative concentration of ERP57 in the rat liver, normalized by total microsomal protein” value is reported as “significant increase”. The “rat oral LD50” value in series [2] is recorded as above 6000 mg/kg.
